Measurements from patent publication US20080300199A1, “ANTIBACTERIAL 1,4,5-SUBSTITUTED AMINOGLYCOSIDE ANALOGS” (Achaogen Inc., priority 2007, published 2008).
In brackets after ≈: the same amount, converted by molar mass.

Columns and labels:
Assay type in all cases: cell-based
P. aeruginosa APAE1058 = assay: MIC assay, aminoglycoside-resistant P. aeruginosa APAE1058; details: origin CF - USA; for MIC (μg/ml) APAE1058: phenotype High level efflux; for MIC: Pseudomonas aeruginosa, APAE1058, phenotype High level efflux, read-out: MIC (μg/ml) APAE1058
Description: (§1) The MIC assays were carried out in 150 μL volume in duplicate in 96-well clear flat-bottom plates. The bacterial suspension from an overnight culture growth in appropriate medium was added to a solution of test compound in 4% DMSO in water. Final bacterial inoculum was approximately 10^5-10^6 CFU/well. The percent growth of the bacteria in test wells relative to that observed for a well containing no compound was determined by measuring absorbance at 595 nm (A595) after 24 h. […] Both ampicillin and tetracycline are used as antibiotic-positive controls in each screening assay for E. coli, S. aureus and K. pneumoniae. Ciprofloxacin is used as an antibiotic-positive control in each screening assay for P. aeruginosa. Amikacin is used as an antibiotic-positive control in each screening assay for A. baumannii. Each of the bacterial cultures that are available from ATCC (www.atcc.org) is identified by its ATCC number.
(§2) MIC assays were carried out as set forth in Example 20 above against certain aminoglycoside-resistant strains of Pseudomonas Aeruginosa.

P. aeruginosa APAE1009 = assay: MIC assay, aminoglycoside-resistant P. aeruginosa APAE1009; details: origin RJ - Greece; for MIC (μg/ml) APAE1009: phenotype AAC(6′)-I + Efflux; for MIC: Pseudomonas aeruginosa, APAE1009, phenotype AAC(6′)-I + Efflux, read-out: MIC (μg/ml) APAE1009
Description: as §1, §2

P. aeruginosa APAE1068 = assay: MIC assay, aminoglycoside-resistant P. aeruginosa APAE1068; details: origin Focus - France; for MIC (μg/ml) APAE1068: phenotype AAC(6′)-I + Efflux; for MIC: Pseudomonas aeruginosa, APAE1068, phenotype AAC(6′)-I + Efflux, read-out: MIC (μg/ml) APAE1068
Description: as §1, §2

P. aeruginosa APAE042 = assay: MIC assay, aminoglycoside-resistant P. aeruginosa APAE042; details: origin SPRI; for MIC (μg/ml) APAE042: phenotype AAC(6′)-II; for MIC: Pseudomonas aeruginosa, APAE042, phenotype AAC(6′)-II, read-out: MIC (μg/ml) APAE042
Description: as §1, §2

P. aeruginosa APAE040 = assay: MIC assay, aminoglycoside-resistant P. aeruginosa APAE040; details: origin SPRI; for MIC (μg/ml) APAE040: phenotype AAC(3)-I; for MIC: Pseudomonas aeruginosa, APAE040, phenotype AAC(3)-I, read-out: MIC (μg/ml) APAE040
Description: as §1, §2

K. pneumoniae ATCC 10031 = assay: MIC assay, K. pneumoniae ATCC 10031; details: absorbance at 595 nm after 24 h; for MIC: Klebsiella pneumoniae, ATCC10031, read-out: MIC (μg/ml) K. pneumoniae ATCC 10031
Description: as §1

[1] = test system: aminoglycoside-resistant Pseudomonas aeruginosa; assay: MIC assays against aminoglycoside-resistant strains of Pseudomonas aeruginosa, summary in words; details: particularly strains expressing efflux-based resistance alone or with AMEs; in comparison to compound 10 and comparative compounds A and B
Description: as §1, §2

P. aeruginosa ATCC 27853 = assay: MIC assay, P. aeruginosa ATCC 27853; details: absorbance at 595 nm after 24 h; for MIC: Pseudomonas aeruginosa, ATCC27853, read-out: MIC (μg/ml) P. aeruginosa ATCC 27853
Description: as §1, with “CFU/well.” for “CFU/well. The percent growth of the bacteria in test wells relative to that observed for a well containing no compound was determined by measuring absorbance at 595 nm (A595) after 24 h.”, “Ciprofloxacin is used as an antibiotic-positive control in each screening assay for P. aeruginosa.” left out

E. coli ATCC 25922 = assay: MIC assay, E. coli ATCC 25922; details: absorbance at 595 nm after 24 h; for MIC: Escherichia coli, ATCC25922, read-out: MIC (μg/ml) E. coli ATCC 25922
Description: as §1, with “CFU/well.” for “CFU/well. The percent growth of the bacteria in test wells relative to that observed for a well containing no compound was determined by measuring absorbance at 595 nm (A595) after 24 h.”, “Ciprofloxacin is used as an antibiotic-positive control in each screening assay for P. aeruginosa.” left out

S. aureus ATCC 29213 = assay: MIC assay, S. aureus ATCC 29213; details: absorbance at 595 nm after 24 h; for MIC: Staphylococcus aureus, ATCC29213, read-out: MIC (μg/ml) S. aureus ATCC 29213
Description: as §1

A. baumannii ATCC 19606 = assay: MIC assay, A. baumannii ATCC 19606; details: absorbance at 595 nm after 24 h; for MIC: Acinetobacter baumannii, ATCC19606, read-out: MIC (μg/ml) A. baumannii ATCC 19606
Description: as §1

With `NCC1C=CC(N)C(OC2C(N)CC(N)C(O)C2OC2OC(CO)C(OC3OC(CN)C(O)C(O)C3N)C2O)O1` (centres unmarked) [A, 3′,4′-Di-deoxy-3′,4′-Di-dehydro-neomycin-B, reference compound] the “MIC (μg/ml) APAE1058” value (P. aeruginosa APAE1058) was over 8 µg/mL, the “MIC (μg/ml) APAE1009” value (P. aeruginosa APAE1009) was over 8 µg/mL and the “MIC (μg/ml) APAE1068” value (P. aeruginosa APAE1068) was 8 µg/mL. For the same compound, the “MIC (μg/ml) APAE042” value (P. aeruginosa APAE042) was 4 µg/mL (≈ 6.89 µM) and the “MIC (μg/ml) APAE040” value (P. aeruginosa APAE040) was 4 µg/mL (≈ 6.89 µM).

Compound `NCC[C@H](O)C(=O)N[C@@H]1C[C@H](N)[C@@H](O[C@H]2O[C@H](CN)C=C[C@H]2N)[C@H](O[C@@H]2O[C@H](CO)[C@@H](O[C@H]3O[C@@H](CN)[C@@H](O)[C@H](O)[C@H]3N)[C@H]2O)[C@H]1O` [Compound 11] has an MIC (P. aeruginosa APAE1058) of 16 µg/mL (≈ 23.5 µM), an MIC (K. pneumoniae ATCC 10031) of under 1 µg/mL and an MIC (P. aeruginosa APAE1009) of 2 µg/mL. For the same compound, the “activity on aminoglycoside-resistant Pseudomonas aeruginosa strains” value [1] was “superior activity”, the MIC (P. aeruginosa ATCC 27853) was 1 to 8 µg/mL (≈ 1.47 to 11.7 µM) and the MIC (P. aeruginosa APAE1068) was 2 µg/mL. It also gave an MIC (E. coli ATCC 25922) of 1 to 8 µg/mL (≈ 1.47 to 11.7 µM), an MIC (P. aeruginosa APAE042) of 0.5 µg/mL (≈ 0.733 µM) and an MIC (S. aureus ATCC 29213) of under 1 µg/mL. For the same compound, the MIC (A. baumannii ATCC 19606) was 1 to 8 µg/mL (≈ 1.47 to 11.7 µM) and the MIC (P. aeruginosa APAE040) was 1 µg/mL (≈ 1.47 µM).

In the case of `NCC[C@H](O)C(=O)N[C@@H]1C[C@H](N)[C@@H](O[C@H]2O[C@H](CN)CC[C@H]2N)[C@H](O[C@@H]2O[C@H](CO)[C@@H](O[C@H]3O[C@@H](CN)[C@@H](O)[C@H](O)[C@H]3N)[C@H]2O)[C@H]1O` [Compound 10, 3′,4′-Di-deoxy-N-1 haba neomycin], the MIC (P. aeruginosa APAE1058) is reported as 32 µg/mL (≈ 46.8 µM), the MIC (K. pneumoniae ATCC 10031) is reported as under 1 µg/mL and the MIC (P. aeruginosa APAE1009) is reported as 4 µg/mL. It also gave an MIC (P. aeruginosa ATCC 27853) of under 1 µg/mL, an MIC (P. aeruginosa APAE1068) of 8 µg/mL and an MIC (E. coli ATCC 25922) of under 1 µg/mL. The MIC (P. aeruginosa APAE042) was 1 µg/mL (≈ 1.46 µM), the MIC (S. aureus ATCC 29213) was under 1 µg/mL and the MIC (A. baumannii ATCC 19606) was 1 to 8 µg/mL (≈ 1.46 to 11.7 µM). For the same compound, the MIC (P. aeruginosa APAE040) was 2 µg/mL (≈ 2.93 µM).

`NCC[C@H](O)C(=O)N[C@@H]1C[C@H](N)[C@@H](O[C@H]2O[C@H](CN)[C@@H](O)[C@H](O)[C@H]2O)[C@H](O)[C@H]1O[C@H]1O[C@H](CO)[C@@H](O)[C@H](N)[C@H]1O` [Amikacin, reference compound] gave an MIC (K. pneumoniae ATCC 10031) of under 1 µg/mL, an MIC (P. aeruginosa ATCC 27853) of 1 to 8 µg/mL (≈ 1.71 to 13.7 µM) and an MIC (E. coli ATCC 25922) of 1 to 8 µg/mL (≈ 1.71 to 13.7 µM). The MIC (S. aureus ATCC 29213) was 1 to 8 µg/mL (≈ 1.71 to 13.7 µM) and the MIC (A. baumannii ATCC 19606) was over 8 µg/mL.

With `NCC[C@H](O)C(=O)NC1CC(N)C(OC2OC(CN)CC(O)C2N)C(OC2OC(CO)C(OC3OC(CN)C(O)C(O)C3N)C2O)C1O` (some centres unmarked) [Compound 18, 4′-Deoxy-N-1 haba neomycin] the “MIC (μg/ml) K. pneumoniae ATCC 10031” value (K. pneumoniae ATCC 10031) was “A (MIC's of 1.0 μg/mL or less = A)”, the “MIC (μg/ml) P. aeruginosa ATCC 27853” value (P. aeruginosa ATCC 27853) was “A (MIC's of 1.0 μg/mL or less = A)” and the “MIC (μg/ml) E. coli ATCC 25922” value (E. coli ATCC 25922) was “B (MIC's of greater than 1.0 μg/mL to 8.0 μg/mL = B)”. The “MIC (μg/ml) S. aureus ATCC 29213” value (S. aureus ATCC 29213) was “B (MIC's of greater than 1.0 μg/mL to 8.0 μg/mL = B)” and the “MIC (μg/ml) A. baumannii ATCC 19606” value (A. baumannii ATCC 19606) was “B (MIC's of greater than 1.0 μg/mL to 8.0 μg/mL = B)”.

In the case of `NCC1CCC(N)C(OC2C(N)CC(N)C(O)C2OC2OC(CO)C(OC3OC(CN)C(O)C(O)C3N)C2O)O1` (centres unmarked) [B, 3′,4′-Di-deoxy-neomycin-B, reference compound], the “MIC (μg/ml) APAE1058” value (P. aeruginosa APAE1058) is reported as over 8 µg/mL, the “MIC (μg/ml) APAE1009” value (P. aeruginosa APAE1009) is reported as over 8 µg/mL and the “MIC (μg/ml) APAE1068” value (P. aeruginosa APAE1068) is reported as 4 µg/mL. For the same compound, the “MIC (μg/ml) APAE042” value (P. aeruginosa APAE042) was 2 µg/mL (≈ 3.43 µM) and the “MIC (μg/ml) APAE040” value (P. aeruginosa APAE040) was 1 µg/mL (≈ 1.72 µM).
